{
  "source": "patent US20240400542A1",
  "about": "(University of Virginia Patent Foundation, priority 2021, published 2024)",
  "biological_target": "T1, Phosphotyrosine protein phosphatase (Homo sapiens, UniProt P24666)",
  "T1 construct": "endogenous in cells; host or cells: HEK293T",
  "T1 sequence (P24666 1-158)": "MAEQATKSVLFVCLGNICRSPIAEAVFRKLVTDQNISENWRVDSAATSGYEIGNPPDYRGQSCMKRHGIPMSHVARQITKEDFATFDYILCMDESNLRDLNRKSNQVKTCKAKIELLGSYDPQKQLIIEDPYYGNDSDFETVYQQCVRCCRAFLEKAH",
  "test": "SILAC competitive chemical proteomic assay (TH211 probe, LC-MS/MS)",
  "assay_type": "cell-based",
  "conditions": "TH207 inhibitor; HEK293T soluble fraction; P24666.3 tyrosine 132",
  "procedure": "The light and heavy proteomes (2.3 mg/mL, 432 μL) prepared from HEK293T cells that were pretreated in situ with vehicle (DMSO) or the inhibitor (2 μM), respectively, at 37° C. for 1 hr followed by probe TH211 treatment (50 μM) for 2 h, were directly were subjected to click reaction with the desthiobiotin-PEG3-azide (10 mM in DMSO, 10 μL, final concentration 200 μM) in the presence of TCEP (50 mM, 10 μL), TBTA (1.7 mM, 33 μL) and CuSO4 (50 mM, 10 μL) at room temperature for 1 hr. The light and the heavy samples were mixed in the chloroform-methanol extraction step. The subsequent steps including reduction with dithiothreitol, alkylation with iodoacetamide, digestion with Trypsin/Lys-C, enrichment with avidin beads were conducted as previously described^26.",
  "data": [
    {"smiles": "Cc1ccc(S(=O)(=O)n2cc(CCN3CCC(=C(c4ccc(F)cc4)c4ccc(F)cc4)CC3)nn2)cc1", "note": "[TH207, 4-(Bis(4-fluorophenyl)methylene)-1-(2-(1-tosyl-1H-1,2,3-triazol-4-yl)ethyl)piperidine]", "values": [
      {"measurement": "Normalized SILAC ratio (SR), Phosphotyrosine protein phosphatase Y132", "value": 1.9}
    ]}
  ]
}
